The record followed here is publication PMC10388362, “Fluorescent Ligands Enable Target Engagement Studies for the Intracellular Allosteric Binding Site of the Chemokine Receptor CXCR2” (Journal of Medicinal Chemistry, 2023).

Where “and” joins values, the source holds several entries; their conditions need not be identical. Identical values can stand only once.

In the test the target is T1, CXCR2 (Homo sapiens, UniProt P25025).
T1 construct: Promega pNLF1-C (Nluc) #CXCR20TN00; host or cells: HEK293T, transient transfection (PEI)
T1 sequence (P25025 1-360): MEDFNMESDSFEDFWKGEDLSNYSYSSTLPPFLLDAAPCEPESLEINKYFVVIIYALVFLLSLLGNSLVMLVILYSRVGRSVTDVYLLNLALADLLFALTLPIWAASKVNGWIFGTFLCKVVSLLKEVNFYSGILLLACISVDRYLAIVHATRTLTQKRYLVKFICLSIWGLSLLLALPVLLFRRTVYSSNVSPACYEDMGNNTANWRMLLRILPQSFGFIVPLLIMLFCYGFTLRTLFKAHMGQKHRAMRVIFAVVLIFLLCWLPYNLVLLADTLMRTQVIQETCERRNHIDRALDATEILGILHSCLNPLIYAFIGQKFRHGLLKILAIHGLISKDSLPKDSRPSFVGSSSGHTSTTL
In words: Live cell NanoBRET association and dissociation kinetic assay. The class given is binding. Particulars: 37 °C. As for the experimental part: HEK293T cells were transfected with the plasmid (5.5 μg) for CXCR2_Nluc using polyethylenimine (PEI) as the transfection reagent (PEI/DNA ratio 3:1). After 24 h at 37 °C and 5% CO2, the cells were detached with DMEM and transferred to a white F-bottom 384-well plate (10,000 cells/well), which was coated with 5 μL/well poly-D-lysine (0.1 mg/mL, dissolved in water), and incubated for further 24 h at 37 °C and 5% CO2. Subsequently, the cells were washed with phosphate-buffered saline (Gibco DPBS, with CaCl2 and MgCl2). 15 μL of the assay medium (Gibco DMEM/F12, 15 mM HEPES, no phenol red supplemented with 5% FBS) and 5 μL of vivazine (final assay dilution: 1:300 in the assay buffer) were added and the cells were incubated at 37 °C for 90 min. Then, 5 μL of the fluorescent ligand (9a), diluted to varying concentrations (final assay concentrations: 10–0.5 nM in the assay medium) was transferred to a 384-well plate. For the determination of nonspecific binding, we added a solution of the fluorescent ligand (9a) and a nonlabeled competitor dissolved in the assay medium (3, final assay concentration: 10 μM) instead. BRET ratios were measured with a CLARIOstar microplate reader using 620/10 and 475/30 nm emission filters over time. The obtained data were analyzed using the association kinetics (two or more conc. of hot ligand) algorithm in PRISM9.5 (GraphPad) to determine the association kinetics.
After running the association assay in cells for at least 133 min, 1 μL of an unlabeled competitor dissolved in the assay buffer (3, final assay concentration: 10 μM) was added. For control experiments, we added 1 μL of the assay medium instead of the competitor solution. BRET ratios were measured with a CLARIOstar microplate reader using 620/10 and 475/30 nm emission filters over time. Specific BRET ratios were calculated as a difference of total and nonspecific binding. The obtained data were analyzed using the dissociation one phase exponential decay algorithm in PRISM9.5 (GraphPad) to determine the dissociation kinetics.

Where [1] appears, read: cells, 9a 1 nM, single determinations.
The mark [2] stands for this setting: cells, 9a 5 nM, single determinations.
Setting [3] is: cells, 9a 10 nM, single determinations.
[4] abbreviates: live HEK293T cells expressing CXCR2_Nluc, mean.

As to `Cc1ccc([C@H](Nc2c(Nc3cccc(C(=O)NCc4cn(CCOCCOCCOCCNC(=O)c5ccc(C(=O)[O-])c(-c6c7ccc(=[N+](C)C)cc-7oc7cc(N(C)C)ccc67)c5)nn4)c3O)c(=O)c2=O)C(C)(C)C)o1` [9a, (R)-4-((2-(2-(2-(2-(4-((3-((2-((2,2-Dimethyl-1-(5-methylfuran-2-yl)propyl)amino)-3,4-dioxocyclobut-1-en-1-yl)amino)-2-hydroxybenzamido)methyl)-1H-1,2,3-triazol-1-yl)ethoxy)ethoxy)ethoxy)ethyl)carbamoyl)-2-(6-(dimethylamino)-3-(dimethyliminio)-3H-xanthen-9-yl)benzoate], under setting [1], the koff was 8.88e-05 s⁻¹; the “koff [min-1]” value was 0.00837 min⁻¹ and 0.00621 min⁻¹ and 0.00861 min⁻¹; the “tr” value is 187.6 min and 119.5 min and 161.1 min and 116.1 min. In addition, under setting [2], the koff is 9.75e-05 s⁻¹; the “koff [min-1]” value was 0.0072 min⁻¹ and 0.00855 min⁻¹ and 0.00476 min⁻¹; the “tr” value is 210.2 min and 170.9 min and 138.9 min and 117.0 min. In addition, under setting [3], the koff was 7.53e-05 s⁻¹; the “koff [min-1]” value is 0.00791 min⁻¹ and 0.00898 min⁻¹ and 0.00859 min⁻¹; the “tr” value was 221.0 min and 126.4 min and 111.4 min and 116.4 min. Binding (live HEK293T cells expressing CXCR2_Nluc) was put at a Kd of 0.2 ± 0.02 nM. Under setting [4], this compound had a koff of 0.000122 s⁻¹, an on-rate (kon) of 620000 M⁻¹ s⁻¹ and a residence time tr of 146 ± 10 min. Moreover, the residence time (live HEK293T cells expressing CXCR2_Nluc, mean, read-out: residence time tr) was 146 min.

What is called koff is a measure of how fast the partners let go of each other. Lower therefore signals a long-lived complex. One may read the Kd as the constant that tells how readily two partners part at equilibrium. A word on the kon: it is the rate constant with which the complex forms. A high value points to fast association. What is called residence time is the mean lifetime of the complex, commonly the reciprocal of the off-rate.
